Measured values from US8604040B2 (priority 2010, dated 2013).
Read-outs that look alike come from different tables or passages of the source. Marks after values point to notes of the source that are not given here.

Experiments:
[1] = log P by HPLC (EEC Directive 79/831 Annex V.A8); assay type: physicochemical
[2] = test system: Phytophthora infestans; assay type: in vivo; details: protective, young tomato plants, active ingredient concentration 500 ppm, evaluation 7 days after inoculation
[3] = test system: Plasmopara viticola; experiment: Plasmopara test (grapevine) / protective; assay type: in vivo; details: young grapevine plants, active ingredient concentration 100 ppm, evaluation 6 days after inoculation
Method: Plasmopara Test (Grapevine)/Protective
Solvent: 24.5 parts by weight of acetone
• 24.5 parts by weight of dimethylacetamide Emulsifier: 1 part by weight of alkylaryl polyglycol ether
To prepare an appropriate active ingredient preparation, 1 part by weight of active ingredient is mixed with the stated amounts of solvent and emulsifier, and the concentrate is diluted with water to the desired concentration.
To test for protective efficacy, young plants are sprayed with the active ingredient preparation at the stated application rate. After the spray coating has dried on, the plants are inoculated with an aqueous spore suspension of Plasmopara viticola and then remain in an incubation cabin at approx. 20° C. and 100% relative atmospheric humidity for 1 day. Subsequently, the plants are placed in a greenhouse at approx. 21° C. and approx. 90% air humidity for 4 days. The plants are then moistened and placed into an incubation cabin for 1 day.
Evaluation follows 6 days after the inoculation. 0% means an efficacy which corresponds to that of the control, whereas an efficacy of 100% means that no infection is observed.

[4] = [b] LC-MS, acidic range, pH 2.7, 0.1% aqueous formic acid and acetonitrile
[5] = [c] LC-MS, neutral range, pH 7.8, 0.001 molar aqueous ammonium hydrogencarbonate and acetonitrile
[6] = [a] HPLC, acidic range, pH 2.3, 0.1% aqueous phosphoric acid and acetonitrile

Structure (SMILES)	log P [1, 4]	log P [1, 5]	efficacy [2] [%]	log P [1, 6]	other results
Cc1cc(C(F)(F)F)nn1CC(=O)N1CCN(c2cccc(C(=O)N(C)Cc3ccccc3Br)n2)CC1 [Example 3]	3.44	3.46	88		
Cc1cc(C(F)(F)F)nn1CC(=O)N1CCN(c2cccc(C(=O)OC3CCCCC3)n2)CC1 [Example 69]	3.96		71		
O=C(OC1C=CCCC1)c1cccc(N2CCN(C(=O)Cn3nc(C(F)F)cc3C(F)F)CC2)n1 (stereo not shown) [Example 142]		3.6	83	3.56	
Cc1cc(C(F)(F)F)nn1CC(=O)N1CCN(c2cccc(C(=O)OC3CCCc4ccccc43)n2)CC1 (stereo not shown) [Example 70]	4.19	4.2	97		
C=CCCCCOC(=O)c1cccc(N2CCN(C(=O)Cn3nc(C(F)(F)F)cc3C)CC2)n1 [Example 71]		3.95	76		
O=C(OCc1ccccc1F)c1cccc(N2CCN(C(=O)Cn3nc(C(F)F)cc3C(F)F)CC2)n1 [Example 137]		3.49	93	3.47	
Cc1cc(C(F)(F)F)nn1CC(=O)N1CCN(c2cccc(C(=O)OC3C=CCCC3)n2)CC1 (stereo not shown) [Example 68]	3.67	3.7	94		
O=C(OC1CCCCC1)c1cccc(N2CCN(C(=O)Cn3nc(C(F)F)cc3C(F)F)CC2)n1 [Example 140]		3.86	93	3.83	efficacy [3]: 71%
O=C(Oc1cccc2ccccc12)c1cccc(N2CCN(C(=O)Cn3nc(C(F)F)cc3C(F)F)CC2)n1 [Example 141]		3.88^[c]	71		
CN(C(=O)c1cccc(N2CCN(C(=O)Cn3nc(C(F)F)cc3C(F)F)CC2)n1)C1CCCc2ccccc21 (stereo not shown) [Example 143]		3.45	71	3.42	
Cc1cc(C(F)(F)F)nn1CC(=O)N1CCN(c2cccc(C(=O)OCc3c(F)cc(F)cc3F)n2)CC1 [Example 118]	3.68	3.71	93		
Cc1cc(C(F)(F)F)nn1CC(=O)N1CCN(c2cccc(C(=O)OCc3ccccc3F)n2)CC1 [Example 73]	3.58	3.6	71		
O=C(Sc1cccc2ccccc12)c1cccc(N2CCN(C(=O)Cn3nc(C(F)F)cc3C(F)F)CC2)n1 [Example 120]		4.28	93	4.25	
O=C(Sc1cccs1)c1cccc(C2CCN(C(=O)Cn3nc(C(F)F)cc3C(F)F)CC2)n1 [Example 123]		3.77	93	3.76	
O=C(OCc1c(F)cccc1F)c1cccc(N2CCN(C(=O)Cn3nc(C(F)F)cc3C(F)F)CC2)n1 [Example 138]		3.43^[a]; 3.43^[c]	93	3.43^[a]; 3.43^[c]	
O=C(OC1CCCc2ccccc21)c1cccc(N2CCN(C(=O)Cn3nc(C(F)F)cc3C(F)F)CC2)n1 (stereo not shown) [Example 117, 1,2,3,4-Tetrahydronaphthalen-1-yl 6-(4-{[3,5-bis(difluoromethyl)-1H-pyrazol-1-yl]-acetyl}piperazin-1-yl)pyridine-2-carboxylate]			93		chromatographic logP ([1]; HPLC (LC-MS), [c] LC-MS, neutral range, pH 7.8, 0.001 molar aqueous ammonium hydrogencarbonate and acetonitrile, read-out: log P): 4.07; chromatographic logP ([1]; HPLC, pH 2.7, given in the preparation examples, read-out: logP (pH2.7)): 4.02; chromatographic logP ([1]; [a] HPLC, acidic range, pH 2.3, 0.1% aqueous phosphoric acid and acetonitrile, read-out: log P): 4.02; efficacy [3]: 93%
Cc1cc(C(F)(F)F)nn1CC(=O)N1CCC(c2cccc(C(=O)Nc3c(F)cccc3F)n2)CC1 [Example 28]	3.13	3.15			
O=C(OCc1ccccc1OC(F)(F)F)c1cccc(C2CCN(C(=O)Cn3nc(C(F)F)cc3C(F)F)CC2)n1 [Example 7]	3.98^[b]				
O=C(Sc1cccs1)c1cccc(N2CCN(C(=O)Cn3nc(C(F)F)cc3C(F)F)CC2)n1 [Example 124]		3.75		3.73	

Structure (SMILES)	log P [1, 4]	log P [1, 5]	efficacy [2] [%]	log P [1, 6]	other results
Cc1cc(C(F)(F)F)nn1CC(=O)N1CCC(c2cccc(C(=O)OCc3ccccc3OC(F)(F)F)n2)CC1 [Example 8]	4.06^[b]				
O=C(OCc1c(F)cc(F)cc1F)c1cccc(C2CCN(C(=O)Cn3nc(C(F)F)cc3C(F)F)CC2)n1 [Example 104]	3.57^[b]				
CN(C(=O)c1cccc(C2CCN(C(=O)Cn3nc(C(F)F)cc3C(F)F)CC2)n1)c1ccccc1Cl [Example 77]	3.01^[b]; 3.01^[c]	3.01^[b]; 3.01^[c]			
O=C(Sc1ccccc1)c1cccc(N2CCN(C(=O)Cn3nc(C(F)F)cc3C(F)F)CC2)n1 [Example 122]		3.81		3.79	
Cc1ccccc1CSC(=O)c1cccc(C2CCN(C(=O)Cn3nc(C(F)(F)F)cc3C)CC2)n1 [Example 56]	4.57	4.58			
Cc1ccccc1CSC(=O)c1cccc(C2CCN(C(=O)Cn3nc(C(F)F)cc3C(F)F)CC2)n1 [Example 133]		4.41		4.39	
Cc1cc(C(F)(F)F)nn1CC(=O)N1CCC(c2cccc(C(=O)Sc3cccs3)n2)CC1 [Example 63]	3.85	3.88			
Cc1cc(C(F)(F)F)nn1CC(=O)N1CCN(c2cccc(C(=O)Oc3cccc4ccccc34)n2)CC1 [Example 75]	3.99	4	71		
Cc1cc(C(F)(F)F)nn1CC(=O)N1CCC(c2cccc(C(=O)N(C)Cc3ccccc3Br)n2)CC1 [Example 2]	3.47	3.49			
Cc1cc(C(F)(F)F)nn1CC(=O)N1CCC(c2cccc(C(=O)N(C)Cc3ccccn3)n2)CC1 [Example 14]		2.23^[c]			
Cc1cc(C(F)(F)F)nn1CC(=O)N1CCC(c2cccc(C(=O)SCc3ccc(F)cc3)n2)CC1 [Example 59]	4.29	4.31			
Cc1cc(C(F)(F)F)nn1CC(=O)N1CCC(c2cccc(C(=O)NC3CCc4ccccc43)n2)CC1 (racemic) [Example 19]	3.56^[b]; 3.56^[c]	3.56^[b]; 3.56^[c]			
Cc1cc(C(F)(F)F)nn1CC(=O)N1CCC(c2cccc(C(=O)NC3CCCCC3)n2)CC1 [Example 18]		3.46^[c]			
O=C(SCc1c(F)cccc1F)c1cccc(N2CCN(C(=O)Cn3nc(C(F)F)cc3C(F)F)CC2)n1 [Example 125]		4.14		4.11	
O=C(NC1CCc2ccccc21)c1cccc(C2CCN(C(=O)Cn3nc(C(F)F)cc3C(F)F)CC2)n1 (stereo not shown) [Example 84]	3.4	3.44			
CCCCCCCSC(=O)c1cccc(N2CCN(C(=O)Cn3nc(C(F)F)cc3C(F)F)CC2)n1 [Example 130]		5.38		5.4	
Cc1cc(C(F)(F)F)nn1CC(=O)N1CCC(c2cccc(C(=O)NCc3ccc(Cl)cc3Cl)n2)CC1 [Example 21]	4.1	4			
O=C(SC1CCCCC1)c1cccc(C2CCN(C(=O)Cn3nc(C(F)F)cc3C(F)F)CC2)n1 [Example 112]		4.65		4.63	
Cc1cc(C(F)(F)F)nn1CC(=O)N1CCC(c2cccc(C(=O)N3CCOc4ccccc43)n2)CC1 [Example 15]	3.04^[b]; 3.04^[c]	3.04^[b]; 3.04^[c]			
